Experiments:
[1] = parameters: method as in Shi et al., 2011; conditions: with ketoconazole compared with ruxolitinib alone; ref Shi et al., 2011; cited from earlier work
[2] = tested on: pyrotinib metabolism in rat liver microsomes (RLMs); experiment: In vitro drug-drug interaction study: azole inhibition of pyrotinib metabolism (M1 formation) in RLMs; assay type: in vitro ADME, Sprague-Dawley (SD) rat; conditions: for IC50: 0.3 mg/ml RLMs, 1 mM NADPH, 37°C, 30 min, n = 3; for Ki / αKi: RLMs, pyrotinib 1, 2, 4, 8 µM, Lineweaver-Burk analysis
Description: The rats were anesthetized with 10% chloral hydrate after 12 h of starvation. […] The rat liver tissue was then accurately removed and transferred to Petri dishes at 0–4°C. The tissues were homogenized in 0.15 mol/L KCl-PBS buffer and stored at 4°C. The homogenate (CR30NX, Eppendorf, Germany) was centrifuged at 9000 rpm at 4°C for 30 min. The supernatant was transferred to another tube and was centrifuged at 105000 rpm at 4°C for 60 min. The precipitate containing liver microsomes was removed and suspended in 0.15 mol/L KCl-PBS buffer (containing 0.25 mol/L sucrose) and stored at −80°C for later use. The liver microsomal concentration was 8.838 mg/ml after the determination with the BCA protein quantification kit (Thermo Scientific, Waltham, MA, United States).
Waters Acquity UPLC I-Class (Waters, USA) was used to separate pyrotinib and midazolam. A binary solvent manager (BSM) and sample manager with a flow-through needle (SM-FTN) were used in the UPLC system. The metabolites’ effective separation was achieved using Acquity UPLC HSS T3 (100 × 2.1 mm, 1.8 μm particle size) (Waters Corporation, Milford, MA, USA) with a mobile phase of acetonitrile (solvent A) and 0.1% formic acid water containing 20 mmol ammonium acetate (solvent B). The gradient program was set as following: 0–0.3 min 10–30% A; 0.3–1 min 30–95% A; 1–2 min 95% A; 2–2.3 min 95–10% A. The mobile phase’s flow rate was 0.4 mL/min, the column temperature was set as 40 °C, and the injection volume was 2 μL. The XEVO TQD triple quadrupole mass spectrometer was equipped with an electrospray ionization (ESI) source, and the multiple reaction monitoring (MRM) mode was selected for quantification. The data were collected using the Mass lynx 4.1 software (Waters Corp.). Mass spectral data were obtained in positive electrospray mode (ESI+) in MRM mode. Nitrogen was used as desolvation (1000 L/h) and cone gases (50 L/h). The ion monitoring voltage conditions were as follows: capillary voltage, 2.5 kV; source temperature, 150°C; desolvation temperature, 500°C. Various reaction monitoring methods were used for quantitative analysis.
200 µl of the incubation mixture was set up as following: 0.3 mg/ml RLMs, 100 mM potassium phosphate buffer (pH 7.4), 1 mM NADPH, and three azole antifungal drugs. […] For fluconazole and itraconazole, the concentrations of them were all adjusted to 0.01, 0.1, 1, 5, 10, 50, and 100 µM. […] The ingredients were combined and pre-warmed for 5 min at 37°C. The reaction was initiated with NADPH and incubated at 37°C for 30 min. Then, 200 µl of acetonitrile-midazolam solution (containing midazolam 200 ng/ml) was added and the mixture was vortexed for 2 min to stop the reaction. After been centrifuged at 13000 rpm for 5 min, 2 µl aliquot of the supernatant was then used for the UPLC-MS/MS analysis.
GraphPad Prism 7.0 software (GraphPad Software Inc.) was used to calculate the enzyme kinetic parameters of substrates which include Vmax, Km, IC50, Ki, and αKi values. The enzyme inhibition mode was obtained using the Linear Lineweaver-Burk plots. The PK characteristics, maximal plasma concentration (Cmax), time to peak plasma concentration (Tmax), apparent volume of distribution (Vz/F), area under the plasma concentration-time curve (AUC), elimination half-life (t1/2), plasma clearance (Cl/F), and mean residence time (MRT), were calculated using DAS (Drug and Statistics) software (Version 3.2.8, The People’s Hospital of Lishui, China). The one-way ANOVA and a Dunnet’s multiple range test were used for the statistical comparisons within groups with SPSS software (Version 25.0; SPSS Inc.). Statistical significance was set at p < 0.05.

[3] = Stability evaluation in rat plasma (UPLC-MS/MS method validation); assay type: in vitro ADME; conditions: n = 6
Description: The test method was extensively verified regarding precision, accuracy, and stability, according to the EMA (European Medicines Agency) 2011 and FDA (Food and Drug Administration) 2018 criteria. In six replicates, quality control (QC) samples were generated at low, medium, and high concentrations and were utilized to validate the procedure. This method was designed to conform to EMA and FDA regulatory requirements for bioanalytical methods.

[4] = In vivo pharmacokinetics of pyrotinib in rats with or without azole pretreatment; parameters: species or system Sprague-Dawley rats; conditions: rat, 40 mg/kg azole for 7 days, then 8 mg/kg pyrotinib oral
Description: Male Sprague-Dawley rats (180–220 g) were supplied by the Experimental Animal Center of Wenzhou Medical University. The animals were placed in a controlled environment of 20–26°C and 55 ± 15% relative humidity under a 12 h light-dark cycle. Except for the 12-h fasting period before the PK study, all rats were fed a standard rodent diet and freely consumed tap water. All experimental procedures and protocols were reviewed and approved by the Animal Care and Use Committee of the Wenzhou Medical University (No. wydw 2019-650), following the Guidelines for The Care and Use of Laboratory Animals. […] After the last administration of the three azoles or 0.5% CMC-Na (control group), a single dose of 8 mg/kg pyrotinib was administered orally to all rats in each group. Each group consisted of 6 rats. The azole antifungal medication was dissolved in 0.5% carboxymethylcellulose sodium solution (CMC-Na). […] The plasma was obtained by centrifuging the blood samples at 4000 rpm for 10 min at 4°C and stored at −80°C until analysis. The frozen plasma samples were thawed at room temperature and uniformly mixed; 50 μL of plasma sample was removed and mixed with 150 μL acetonitrile-midazolam solution (containing midazolam 200 ng/ml) to precipitate the proteins, followed by vortexing for 30 s and centrifuging at 13,000 rpm for 5 min. Then 150 μL of the supernatant was collected and placed into UPLC vials with 2 μL of sample was subjected to UPLC-MS/MS analysis. GraphPad Prism 7.0 software (GraphPad Software Inc.) was used to calculate the enzyme kinetic parameters of substrates which include Vmax, Km, IC50, Ki, and αKi values. The enzyme inhibition mode was obtained using the Linear Lineweaver-Burk plots. The PK characteristics, maximal plasma concentration (Cmax), time to peak plasma concentration (Tmax), apparent volume of distribution (Vz/F), area under the plasma concentration-time curve (AUC), elimination half-life (t1/2), plasma clearance (Cl/F), and mean residence time (MRT), were calculated using DAS (Drug and Statistics) software (Version 3.2.8, The People’s Hospital of Lishui, China). The one-way ANOVA and a Dunnet’s multiple range test were used for the statistical comparisons within groups with SPSS software (Version 25.0; SPSS Inc.). Statistical significance was set at p < 0.05.

## N#CC[C@H](C1CCCC1)n1cc(-c2ncnc3[nH]ccc23)cn1 [ruxolitinib]
[1]
  increase of plasma exposure: 91%

## OC(Cn1cncn1)(Cn1cncn1)c1ccc(F)cc1F [fluconazole, Fluconazole]
[2]
  IC50: 11.6 µM
  Ki: 15.1 µM
  αKi: 19.01 µM

## CC(=O)N1CCN(c2ccc(OCC3COC(Cn4ccnc4)(c4ccc(Cl)cc4Cl)O3)cc2)CC1 (centres unmarked) [ketoconazole, Ketoconazole]
[2]
  IC50: 0.06 µM
  Ki: 0.132 µM
  αKi: 0.077 µM

## CCOc1cc2ncc(C#N)c(Nc3ccc(O)c(Cl)c3)c2cc1NC(=O)/C=C/[C@@H]1CCCN1C [Pyrotinib M1, O-depicolyl pyrotinib]
[3]; 4°C, 24 h, high concentration (pyrotinib 4500, pyrotinib M1 0.75 μM)
  Stability in rat plasma, RE: 103.58%
[3]; 4°C, 24 h, low concentration (pyrotinib 15, pyrotinib M1 0.015 μM)
  Stability in rat plasma, RE: 104.44%
[3]; 4°C, 24 h, medium concentration (pyrotinib 150, pyrotinib M1 0.15 μM)
  Stability in rat plasma, RE: 108.67%
[3]; Room temperature, 6 h, high concentration (pyrotinib 4500, pyrotinib M1 0.75 μM)
  Stability in rat plasma, RE: 108.42%
[3]; Room temperature, 6 h, low concentration (pyrotinib 15, pyrotinib M1 0.015 μM)
  Stability in rat plasma, RE: 102.22%
[3]; Room temperature, 6 h, medium concentration (pyrotinib 150, pyrotinib M1 0.15 μM)
  Stability in rat plasma, RE: 102.44%
[3]; −80°C, 7 days, high concentration (pyrotinib 4500, pyrotinib M1 0.75 μM)
  Stability in rat plasma, RE: 104.47%
[3]; −80°C, 7 days, low concentration (pyrotinib 15, pyrotinib M1 0.015 μM)
  Stability in rat plasma, RE: 109.33%
[3]; −80°C, 7 days, medium concentration (pyrotinib 150, pyrotinib M1 0.15 μM)
  Stability in rat plasma, RE: 107.56%

## CCC(C)n1ncn(-c2ccc(N3CCN(c4ccc(OCC5COC(Cn6cncn6)(c6ccc(Cl)cc6Cl)O5)cc4)CC3)cc2)c1=O (centres unmarked) [itraconazole, Itraconazole]
[2]
  IC50: 0.27 µM
  Ki: 0.496 µM
  αKi: 0.334 µM
[4]
  inhibitory effect on pyrotinib in vivo: no inhibitory effect
